pIC50: −log10 of the molar value.
These compounds were tested on Chloroquine/Pyrimethamine resistant Plasmodium falciparum K1 (assay: In vitro sensitivity assay: Plasmodium falciparum by 3H-hypoxanthine incorporation). Conditions: Erythrocyte, P. falciparum K1 strain in human red blood cells, 3H-hypoxanthine incorporation, read-out: IC50 K1 in vitro.
Type: cell-based
Method: Biological Test 1: In Vitro Sensitivity Assays: Plasmodium falciparum by ^3H-Hypoxanthine Incorporation.
The strain used for this assay is the Chloroquine/Pyrimethamine resistant Plasmodium falciparum K1 and drugs such as Chloroquine (10 mg/mL stock; start concentration 1000 ng/mL) and Artemisinine (Qinghaosu) (5 mg/mL stock; start concentration 10 ng/mL) were used as standards. Human red blood cells were used as host cells and the activity was measured using a ^3H-hypoxanthine incorporation assay.
Into a Costar™ 96-well microtitre plates, 100 μL of medium (RPMI 1640 without hypoxanthine 10.44 g/L, HEPES 5.94 g/L, Albumax® 5 g/L, Neomycin 10 mL/L, NaHCO3 2.1 g/L) were added to the wells of row containing drugs available from stock solutions of 10 mg/mL in DMSO (compounds were kept at −20° C. Since DMSO is toxic, care had to be taken not to exceed a final concentration of 0.5% DMSO). Then 100 μL of medium were added at rt to all wells of the plate. By means of a 12-well multi-pipette serial drug dilutions were prepared. A serial dilution factor of 1:2 is thus obtained. One row of wells without drugs served as controls. Next 100 μL of medium+washed human red blood cells A+(RBC) was added to the last 4 wells of the first row; these columns serve as background controls (that may be caused by 3H-hypoxanthine incorporation into RBC without the parasite). Into the remaining wells, 100 μL of medium+RBC+P. falciparum mix was added. The plates were placed for 48 h into a chamber at 37° C. gassed with a 4% CO2, 3% O2, 93% N2 mix. Finally 50 μL of medium+3H-hypoxanthine [(500 μL ^3H-hypoxanthine stock+500 μL EtOH+49 mL medium (0.5 μCi)] was added to each well and the plates were put back at 37° C. for 24 h into the chamber and gassed with a 4% CO2, 3% O2, 93% N2 mix. The plates were then read using the Cell Harvester and the data were transferred into a graphic program (Excel) and are evaluated to determine the IC50 by linear interpolation.

**Q.** With `CC(C)(C)OC(=O)N1CC[C@H](n2c3ccc(F)cc3c3cc(Cl)ccc32)[C@@H](O)C1` (racemic) [Compound 1, trans-4-(3-Chloro-6-fluoro-carbazol-9-yl)-3-hydroxy-piperidine-1-carboxylic acid tert-butyl ester] as the compound, how does the pIC50 read?
**A.** The pIC50 was 6.50.

**Q.** How did the pIC50 turn out when `CC(C)(C)OC(=O)N1CC[C@@H](O)[C@H](n2c3ccc(F)cc3c3cc(Cl)ccc32)C1` (racemic) [Compound 2, trans-3-(3-Chloro-6-fluoro-carbazol-9-yl)-4-hydroxy-piperidine-1-carboxylic acid tert-butyl ester] was run?
**A.** The pIC50 was 6.90.

**Q.** `O[C@H]1CCNC[C@@H]1n1c2ccc(Cl)cc2c2cc(Cl)ccc21` (racemic) [Compound 8, trans-3-(3,6-dichloro-9H-carbazol-9-yl)piperidin-4-ol] was tested. Which pIC50 did it give?
**A.** The pIC50 was 6.11.

**Q.** How did the pIC50 turn out when `O[C@H]1CCN(C2CCCCC2)C[C@@H]1n1c2ccc(Cl)cc2c2cc(Cl)ccc21` (racemic) [Compound 14] was run?
**A.** The pIC50 was 7.89.

Each compound was assayed on P. falciparum strain NF54 (assay: P. falciparum growth assay ([3H] hypoxanthine incorporation)). Conditions: Plasmodium falciparum; P. falciparum NF54 strain, 72 h incubation, [3H]hypoxanthine incorporation; read-out: IC50 NF54.
Type: cell-based
Method: • Cultivation of P. falciparum:
P. falciparum strain NF54 was obtained from the Research and Reference Reagent
Resource Center (MR4) (Manassas, Va.). The two strains were maintained in vitro by a modification of the method of Trager and Jensen. Cultures were maintained in A positive (A+) human erythrocytes suspended at 5% hematocrit in complete medium. 5 g albumax II (Gibco-Invitrogen, Cat No#11021037), 2.5 mg gentamicin (Sigma Aldrich), 25 mM HEPES (Invitrogen), 5 mg hypoxanthine (Sigma), and 1 L of RPMI 1640 (Invitrogen, Cat No#11875085). Cultures were grown in 100 mm petri-dishes (BD Falcon) at a volume of 15 mL and were kept in a standard gas environment of 4% CO2 and 3% 02 at temperature 37° C. in a tri-gas incubator (Cat#3131, Thermo Scientific Forma Series II Water Jacketed). Parasite growth and morphology were observed daily using thin smears at 100× (oil immersion) magnification following staining with Geimsa stain. • P. falciparum growth assay:
The protocol assesses the compound efficacy against the growth of P. falciparum in-vitro.
Parasite growth was detected in assay by the traditional [3H] hypoxanthine incorporation assay as previously described by Desjardins and colleagues (Antimicrob. Agents Chemother., 16(6), 710, 1979). To perform the [3H] hypoxanthine incorporation assay, the new antimalarial agents were serially diluted 1:1 into hypoxanthine-free complete medium to a final volume of 100 μL (final antimalarial agent concentration range, 10,000 nM to 4.8 nM may change in special case) in 96 well sterile cell culture plates. […] All cultures used in the study are albumax II adopted. The microtiter plates were incubated in chamber in a standard gas environment at 37° C. for 72 h. After 48 h of incubation and prior to addition of 50 μL (0.5 μCi/well) 3H-Hypoxanthine (specific activity, 20 Ci/mmol, Conc. 1.0 mCi/ml; American Radiolabeled Chemicals, Inc., St. Louis, Mo.), culture growth was assessed by making the smears that ensures the culture has grown in % p and assay plate is further incubated for 24 h. Following the incubation period, the plates were harvested with a FilterMate cell harvester (Perkin Elmer) onto unifilter-96 GF/B plates, washed with distilled water to remove excess radiochemical and plates were kept for drying 37° C. overnight or 60° C. for 1 h. 50 μL of Microscint scintillation cocktail (Microscint-High Efficiency LSC-Cocktail; Perkin Elmer) added in the unifilter-96 GF/B plates and kept for 15-20 min. The plates were counted in a Top Count NXT microplate scintillation and luminescence counter (Perkin Elmer). The mean values for [3H]hypoxanthine incorporation in parasitized control and non-parasitized control erythrocytes were calculated.
Assay data were analyzed using Graph pad prism ver.5 software. A variable sigmoid dose response curve is plotted keeping log concentrations at X-axis and % inhibition at Y-axis.

**Q.** `CC(C)(C)OC(=O)N1CC[C@@H](O)[C@H](n2c3ccc(F)cc3c3cc(F)ccc32)C1` (racemic) [Compound 44, trans-tert-butyl 3-(3,6-difluoro-9H-carbazol-9-yl)-4-hydroxypiperidine-1-carboxylate] was tested. Which pIC50 did it give?
**A.** The pIC50 was 6.10.

**Q.** `CC(C)(C)OC(=O)N1CC[C@@H](n2c3ccc(F)cc3c3cc(F)ccc32)[C@H](O)C1` (racemic) [Compound 46, trans-tert-butyl 4-(3,6-difluoro-9H-carbazol-9-yl)-3-hydroxypiperidine-1-carboxylate] was tested. Which pIC50 did it give?
**A.** The pIC50 was 5.88.

**Q.** How did the pIC50 turn out when `O[C@@H]1CCNC[C@H]1n1c2ccc(C(F)(F)F)cc2c2cc(C(F)(F)F)ccc21` (racemic) [Compound 59, trans-3-(3,6-bis(trifluoromethyl)-9H-carbazol-9-yl)piperidin-4-ol] was run?
**A.** The pIC50 was 5.88.

**Q.** How did the pIC50 turn out when `O[C@@H]1CNCC[C@H]1n1c2ccc(F)cc2c2cc(F)ccc21` (racemic) [Compound 62] was run?
**A.** Its pIC50 is 6.58.

**Q.** With `O[C@@H]1CNCC[C@H]1n1c2ccc(C(F)(F)F)cc2c2cc(C(F)(F)F)ccc21` (racemic) [Compound 68, trans-4-(3,6-bis(trifluoromethyl)-9H-carbazol-9-yl)piperidin-3-ol] as the compound, how does the pIC50 read?
**A.** Its pIC50 is 7.65.

**Q.** `O[C@@H]1CN(Cc2ccccc2)CC[C@H]1n1c2ccc(F)cc2c2cc(F)ccc21` (relative stereo) [Compound 41, trans-1-benzyl-4-(3,6-difluoro-9H-carbazol-9-yl)piperidin-3-ol] was tested. Which pIC50 did it give?
**A.** The pIC50 was 6.55.

**Q.** `O[C@@H]1CCN(Cc2ccccc2)C[C@H]1n1c2ccc(F)cc2c2cc(F)ccc21` (relative stereo) [Compound 63, trans-1-benzyl-3-(3,6-difluoro-9H-carbazol-9-yl)piperidin-4-ol] was tested. Which pIC50 did it give?
**A.** The pIC50 was 6.63.

**Q.** How did the pIC50 turn out when `O[C@H]1CNCC[C@@H]1n1c2ccc(Cl)cc2c2cc(Cl)cnc21` (single isomer, unassigned) [Compound 19] was run?
**A.** Its pIC50 is 7.03.

**Q.** How did the pIC50 turn out when `O[C@@H]1CNCC[C@H]1n1c2ccc(Cl)cc2c2cc(Cl)cnc21` (single isomer, unassigned) [Compound 20] was run?
**A.** Its pIC50 is 6.91.

**Q.** How did the pIC50 turn out when `O[C@@H]1CCN(Cc2ccccc2)C[C@H]1n1c2ccc(F)cc2c2cc(F)ccc21` (single isomer, unassigned) [Compound 42] was run?
**A.** The pIC50 was 7.10.

**Q.** How did the pIC50 turn out when `O[C@H]1CCN(Cc2ccccc2)C[C@@H]1n1c2ccc(F)cc2c2cc(F)ccc21` (single isomer, unassigned) [Compound 43] was run?
**A.** Its pIC50 is 6.04.

**Q.** How did the pIC50 turn out when `CC(C)(C)OC(=O)N1CC[C@@H](O)[C@H](n2c3ccc(F)cc3c3cc(F)ccc32)C1` (single isomer, unassigned) [Compound 47] was run?
**A.** The pIC50 was 6.24.

**Q.** How did the pIC50 turn out when `CC(C)(C)OC(=O)N1CC[C@H](O)[C@@H](n2c3ccc(F)cc3c3cc(F)ccc32)C1` (single isomer, unassigned) [Compound 48] was run?
**A.** Its pIC50 is 5.90.

**Q.** With `O[C@@H]1CCNC[C@H]1n1c2ccc(Cl)cc2c2cc(Cl)cnc21` (single isomer, unassigned) [Compound 55] as the compound, how does the pIC50 read?
**A.** Its pIC50 is 5.44.

**Q.** With `O[C@@H]1CCNC[C@H]1n1c2ccc(Cl)cc2c2cc(Cl)ccc21` (single isomer, unassigned) [Compound 66] as the compound, how does the pIC50 read?
**A.** Its pIC50 is 5.77.

**Q.** With `O[C@@H]1CCN(CCC(F)(F)F)C[C@H]1n1c2ccc(F)cc2c2cc(F)ccc21` [Compound 45, (3R,4R)-3-(3,6-difluoro-9H-carbazol-9-yl)-1-(3,3,3-trifluoropropyl)piperidin-4-ol] as the compound, how does the pIC50 read?
**A.** The pIC50 was 7.02.

**Q.** How did the pIC50 turn out when `O[C@@H]1CCN(CCCC(F)(F)F)C[C@H]1n1c2ccc(F)cc2c2cc(F)ccc21` [Compound 49, (3R,4R)-3-(3,6-difluoro-9H-carbazol-9-yl)-1-(4,4,4-trifluorobutyl)piperidin-4-ol] was run?
**A.** The pIC50 was 7.47.

**Q.** `O[C@@H]1CCN(CC2CC2)C[C@H]1n1c2ccc(F)cc2c2cc(F)ccc21` [Compound 50, (3R,4R)-1-(cyclopropylmethyl)-3-(3,6-difluoro-9H-carbazol-9-yl)piperidin-4-ol] was tested. Which pIC50 did it give?
**A.** Its pIC50 is 6.54.

**Q.** How did the pIC50 turn out when `CC(C)(C)CN1CC[C@@H](O)[C@H](n2c3ccc(F)cc3c3cc(F)ccc32)C1` [Compound 51, (3R,4R)-3-(3,6-difluoro-9H-carbazol-9-yl)-1-neopentylpiperidin-4-ol] was run?
**A.** Its pIC50 is 6.26.

**Q.** `O[C@@H]1CCN(CCc2ccccc2)C[C@H]1n1c2ccc(F)cc2c2cc(F)ccc21` [Compound 52, (3R,4R)-3-(3,6-difluoro-9H-carbazol-9-yl)-1-phenethylpiperidin-4-ol] was tested. Which pIC50 did it give?
**A.** Its pIC50 is 6.77.

**Q.** How did the pIC50 turn out when `O[C@@H]1CCN(CC2(C(F)(F)F)CC2)C[C@H]1n1c2ccc(F)cc2c2cc(F)ccc21` [Compound 53, (3R,4R)-3-(3,6-difluoro-9H-carbazol-9-yl)-1-((1-(trifluoromethyl)cyclopropyl)methyl)piperidin-4-ol] was run?
**A.** The pIC50 was 7.13.

**Q.** With `O[C@@H]1CCN(CCC(F)(F)F)C[C@H]1n1c2ccc(Cl)cc2c2cc(Cl)ccc21` [Compound 54, (3R,4R)-3-(3,6-dichloro-9H-carbazol-9-yl)-1-(3,3,3-trifluoropropyl)piperidin-4-ol] as the compound, how does the pIC50 read?
**A.** Its pIC50 is 7.55.

**Q.** `O[C@@H]1CCN(CCC(F)(F)F)C[C@H]1n1c2ccc(Cl)cc2c2cc(Cl)cnc21` [Compound 57, (3R,4R)-3-(3,6-dichloro-9H-pyrido[2,3-b]-indol-9-yl)-1-(3,3,3-trifluoropropyl)piperidin-4-ol] was tested. Which pIC50 did it give?
**A.** Its pIC50 is 5.65.

**Q.** `O[C@@H]1CN(CCC(F)(F)F)CC[C@H]1n1c2ccc(Cl)cc2c2cc(Cl)cnc21` [Compound 58, (3R,4R)-4-(3,6-dichloro-9H-pyrido[2,3-b]indol-9-yl)-1-(3,3,3-trifluoropropyl)piperidin-3-ol] was tested. Which pIC50 did it give?
**A.** Its pIC50 is 6.14.

**Q.** With `O[C@@H]1CNCC[C@H]1n1c2ccc(C(F)(F)F)cc2c2cc(C(F)(F)F)ccc21` [Compound 60, (3R,4R)-4-(3,6-bis(trifluoromethyl)-9H-carbazol-9-yl)piperidin-3-ol] as the compound, how does the pIC50 read?
**A.** The pIC50 was 7.69.

**Q.** `O[C@H]1CNCC[C@@H]1n1c2ccc(C(F)(F)F)cc2c2cc(C(F)(F)F)ccc21` [Compound 61, (3S,4S)-4-(3,6-bis(trifluoromethyl)-9H-carbazol-9-yl)piperidin-3-ol] was tested. Which pIC50 did it give?
**A.** The pIC50 was 7.69.
